Assay results: ChEMBL document CHEMBL1134802, “Biphenyls as surrogates of the steroidal backbone. Part 1: synthesis and estrogen receptor affinity of an original series of polysubstituted biphenyls” (Bioorg Med Chem Lett, 2001)

biological target: T1, Estrogen receptor (Homo sapiens) (UniProt P03372); experiment: Binding affinity for human estrogen receptor alpha after 3 hr at 0C
T1 sequence (whole entry): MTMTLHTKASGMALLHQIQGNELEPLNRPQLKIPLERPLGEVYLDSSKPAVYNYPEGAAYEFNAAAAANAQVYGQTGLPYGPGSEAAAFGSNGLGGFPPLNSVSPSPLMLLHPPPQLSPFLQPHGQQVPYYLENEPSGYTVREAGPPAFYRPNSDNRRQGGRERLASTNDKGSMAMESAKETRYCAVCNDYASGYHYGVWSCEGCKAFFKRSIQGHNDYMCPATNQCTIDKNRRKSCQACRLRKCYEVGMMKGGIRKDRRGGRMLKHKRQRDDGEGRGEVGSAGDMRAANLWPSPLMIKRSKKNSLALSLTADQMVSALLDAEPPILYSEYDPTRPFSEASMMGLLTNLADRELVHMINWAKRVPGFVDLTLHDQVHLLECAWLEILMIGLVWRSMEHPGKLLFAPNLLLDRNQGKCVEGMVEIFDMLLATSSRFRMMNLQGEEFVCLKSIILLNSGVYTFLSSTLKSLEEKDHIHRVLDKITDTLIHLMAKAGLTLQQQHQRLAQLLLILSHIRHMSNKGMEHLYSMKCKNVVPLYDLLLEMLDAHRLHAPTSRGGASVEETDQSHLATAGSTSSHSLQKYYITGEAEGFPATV

Activity [%] | SMILES
425 | OCc1cc(Br)c(-c2ccc(O)cc2)c(Br)c1
24 | O=[N+]([O-])c1cc(CO)cc([N+](=O)[O-])c1-c1ccc(O)cc1
33 | OCc1ccc(-c2ccc(O)cc2)c(C(F)(F)F)c1
104 | OCc1cc(Cl)c(-c2ccc(O)cc2)c(Cl)c1

biological target: T1, Estrogen receptor (Homo sapiens); experiment: Receptor binding affinity (RBA) to human recombinant estrogen receptor alpha (REH) after 24 hours at 0 degree Centigrade

SMILES | Activity [%]
CSc1cc(CO)cc(Br)c1-c1ccc(O)cc1 | 4.5
CC(C)c1cc(CO)cc(Cl)c1-c1ccc(O)cc1 | 22
OCc1cc(Br)c(-c2ccc(O)cc2)c(I)c1 | 41
Cc1cc(O)cc(C)c1-c1ccc(CO)cc1 | 0.06
Cc1cc(CO)cc(C)c1-c1ccc(O)cc1 | 0.8
OCc1cc(F)c(-c2ccc(O)cc2)c(F)c1 | 0.93
OCc1cc(Br)c(-c2ccc(O)cc2)c(-n2cccc2)c1 | 2
OCc1cc(Cl)c(-c2ccc(O)cc2)c(-c2ccc(O)cc2)c1 | 1
OCc1ccc(-c2ccc(O)cc2)c(C(F)(F)F)c1 | 9.5
Nc1cc(CO)cc(Br)c1-c1ccc(O)cc1 | 0.03
OCc1cc(Cl)c(-c2ccc(O)cc2)c(Cl)c1 | 34
OCc1ccc(-c2c(Cl)cc(O)cc2Cl)cc1 | 0.4

Second part, the molecule after the results:

Activity [%] | SMILES
21 | OCc1cc(Cl)c(-c2ccc(O)cc2Cl)c(Cl)c1
2.5 | COc1cc(CO)cc(Cl)c1-c1ccc(O)cc1
0.03 | Nc1cc(CO)cc([N+](=O)[O-])c1-c1ccc(O)cc1
0 | Cc1cc(-c2ccc(CO)cc2)cc(C)c1O
0.07 | OCc1cc(Cl)c(-c2ccc(O)c(Cc3ccccc3)c2)c(Cl)c1
2 | OCc1ccc(-c2ccc(O)cc2)c(Cl)c1
0.03 | OCc1ccc(-c2ccc(O)cc2Cl)cc1
5.4 | OCc1c(Cl)c(Cl)c(-c2ccc(O)cc2)c(Cl)c1Cl
1 | OCc1ccc(-c2ccc(O)cc2)c(-c2ccc(O)cc2)c1
5 | O=[N+]([O-])c1cc(CO)cc([N+](=O)[O-])c1-c1ccc(O)cc1
50 | OCc1cc(Cl)c(-c2ccc(O)cc2)c(C(F)(F)F)c1
34 | O=[N+]([O-])c1cc(CO)cc(Br)c1-c1ccc(O)cc1
0.24 | COc1cc(CO)cc(OC)c1-c1ccc(O)cc1
0.2 | CN(C)C#Cc1cc(CO)cc(Br)c1-c1ccc(O)cc1
0 | OCc1ccc(-c2c(Cl)c(Cl)c(O)c(Cl)c2Cl)cc1
0 | OCc1ccc(-c2cc(Br)c(O)c(Br)c2)cc1

biological target: T1, Estrogen receptor (Homo sapiens); experiment: Binding affinity for human estrogen receptor alpha after 24 hr r at 0C

Activity [%] | SMILES
106 | OCc1cc(Br)c(-c2ccc(O)cc2)c(Br)c1
